Measurements published in ChEMBL document CHEMBL1268978, “Arylpiperazine-containing pyrimidine 4-carboxamide derivatives targeting serotonin 5-HT(2A), 5-HT(2C), and the serotonin transporter as a potential antidepressant” (Bioorg Med Chem Lett, 2010).
Active and inactive are the calls of the source. The rule behind the calls is not given here.

Key:
[1] = target: T1, 5-hydroxytryptamine receptor 2C (Homo sapiens, UniProt P28335); experiment: Displacement of [3H]mesulergine from human recombinant 5HT2C receptor expressed in CHO-K1 cells; assay type: cell-based
T1 sequence (P28335 whole entry): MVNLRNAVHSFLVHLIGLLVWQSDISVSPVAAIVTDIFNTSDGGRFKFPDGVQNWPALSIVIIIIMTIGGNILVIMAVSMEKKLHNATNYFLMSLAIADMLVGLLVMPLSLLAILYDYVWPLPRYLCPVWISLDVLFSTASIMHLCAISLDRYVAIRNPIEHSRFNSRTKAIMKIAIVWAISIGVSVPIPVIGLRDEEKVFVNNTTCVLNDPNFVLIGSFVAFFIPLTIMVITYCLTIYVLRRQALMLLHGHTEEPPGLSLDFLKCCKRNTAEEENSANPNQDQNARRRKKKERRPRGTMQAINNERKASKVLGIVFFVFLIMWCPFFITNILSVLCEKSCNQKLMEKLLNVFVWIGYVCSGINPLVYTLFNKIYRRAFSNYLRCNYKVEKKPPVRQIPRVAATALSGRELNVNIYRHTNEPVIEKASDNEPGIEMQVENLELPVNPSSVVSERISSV

[2] = target: Voltage-gated inwardly rectifying potassium channel KCNH2 (Homo sapiens, UniProt Q12809); experiment: Inhibition of human ERG channel
[3] = target: Sodium-dependent serotonin transporter (Homo sapiens, UniProt P31645); experiment: Displacement of [3H]imipramine from human recombinant SERT receptor expressed in HEK293 cells; assay type: cell-based
Mus musculus [4] = experiment: Antidepressant activity in mouse at 25 mg/kg, ip administered 30 mins before test by forced swimming test; assay type: functional, organism-based; parameters: dose 25 mg/kg
Mus musculus [5] = experiment: Toxicity in mouse assessed as induction of hypoactivity measured for 30 mins at 25 mg/kg, ip measured by spontaneous locomotor activity assay; assay type: organism-based; parameters: dose 25 mg/kg, route intraperitoneal; conditions: in vivo, 0.5 h
Mus musculus [6] = experiment: Toxicity in mouse assessed as induction of hyperactivity measured for 30 mins at 25 mg/kg, ip measured by spontaneous locomotor activity assay; assay type: organism-based; parameters: dose 25 mg/kg, route intraperitoneal; conditions: in vivo, 0.5 h
[7] = target: 5-hydroxytryptamine receptor 2A (Homo sapiens, UniProt P28223); experiment: Displacement of [3H]ketanserin from human recombinant 5HT2A receptor expressed in CHO-K1 cells; assay type: cell-based
Cytochrome P450 2C9 = Cytochrome P450 2C9 (Homo sapiens, UniProt P11712); experiment: Inhibition of CYP2C9; assay type: ADME
Cytochrome P450 1A2 = target: T2, Cytochrome P450 1A2 (Homo sapiens, UniProt P05177); experiment: Inhibition of CYP1A2; assay type: ADME
T2 sequence (P05177 whole entry): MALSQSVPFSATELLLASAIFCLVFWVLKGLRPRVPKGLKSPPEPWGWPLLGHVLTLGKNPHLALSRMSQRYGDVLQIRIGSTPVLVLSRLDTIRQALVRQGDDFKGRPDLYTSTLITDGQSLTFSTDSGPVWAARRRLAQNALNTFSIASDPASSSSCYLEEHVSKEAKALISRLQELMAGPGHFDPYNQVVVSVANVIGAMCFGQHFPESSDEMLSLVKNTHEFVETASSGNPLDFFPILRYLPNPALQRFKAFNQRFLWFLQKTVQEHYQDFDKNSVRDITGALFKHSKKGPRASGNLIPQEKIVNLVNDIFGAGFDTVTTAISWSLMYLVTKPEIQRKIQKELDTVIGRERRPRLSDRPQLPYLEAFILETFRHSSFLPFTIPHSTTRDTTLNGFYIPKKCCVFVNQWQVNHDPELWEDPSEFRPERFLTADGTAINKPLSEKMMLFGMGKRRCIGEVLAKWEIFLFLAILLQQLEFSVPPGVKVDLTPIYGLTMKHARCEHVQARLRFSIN

Cytochrome P450 2D6 = Cytochrome P450 2D6 (Homo sapiens, UniProt P10635); experiment: Inhibition of CYP2D6; assay type: ADME
Cytochrome P450 3A4 = Cytochrome P450 3A4 (Homo sapiens, UniProt P08684); experiment: Inhibition of CYP3A4; assay type: ADME
Sequence of Cytochrome P450 3A4 (P08684 whole entry): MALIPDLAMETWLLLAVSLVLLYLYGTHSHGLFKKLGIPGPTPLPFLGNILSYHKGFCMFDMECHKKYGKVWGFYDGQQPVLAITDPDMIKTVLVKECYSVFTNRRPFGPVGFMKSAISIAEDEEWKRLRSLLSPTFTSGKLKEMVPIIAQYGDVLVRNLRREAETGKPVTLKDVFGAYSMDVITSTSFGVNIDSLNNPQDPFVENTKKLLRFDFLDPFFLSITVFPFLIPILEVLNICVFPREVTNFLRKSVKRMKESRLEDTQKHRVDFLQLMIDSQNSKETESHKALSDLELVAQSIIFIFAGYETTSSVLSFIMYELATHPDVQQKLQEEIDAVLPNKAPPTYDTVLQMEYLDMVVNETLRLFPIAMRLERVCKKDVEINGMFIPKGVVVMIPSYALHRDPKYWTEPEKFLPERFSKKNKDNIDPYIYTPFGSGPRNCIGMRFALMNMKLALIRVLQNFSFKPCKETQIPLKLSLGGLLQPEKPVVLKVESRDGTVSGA

Sequence of Sodium-dependent serotonin transporter (P31645 whole entry): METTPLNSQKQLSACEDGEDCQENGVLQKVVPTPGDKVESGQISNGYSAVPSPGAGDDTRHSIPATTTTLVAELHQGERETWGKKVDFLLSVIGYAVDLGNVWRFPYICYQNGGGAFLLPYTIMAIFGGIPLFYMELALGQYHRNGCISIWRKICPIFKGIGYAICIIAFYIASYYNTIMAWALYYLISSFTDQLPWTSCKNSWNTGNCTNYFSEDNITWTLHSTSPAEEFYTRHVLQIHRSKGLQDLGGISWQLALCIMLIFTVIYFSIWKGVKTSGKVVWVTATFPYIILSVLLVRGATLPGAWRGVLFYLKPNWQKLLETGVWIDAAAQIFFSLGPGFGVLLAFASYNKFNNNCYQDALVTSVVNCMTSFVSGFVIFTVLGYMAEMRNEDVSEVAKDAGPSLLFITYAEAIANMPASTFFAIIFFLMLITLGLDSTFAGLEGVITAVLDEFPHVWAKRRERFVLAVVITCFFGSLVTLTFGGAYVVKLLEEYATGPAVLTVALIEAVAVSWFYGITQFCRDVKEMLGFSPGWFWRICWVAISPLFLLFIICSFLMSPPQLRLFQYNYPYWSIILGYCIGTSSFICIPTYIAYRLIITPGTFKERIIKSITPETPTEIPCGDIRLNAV
Sequence of 5-hydroxytryptamine receptor 2A (P28223 whole entry): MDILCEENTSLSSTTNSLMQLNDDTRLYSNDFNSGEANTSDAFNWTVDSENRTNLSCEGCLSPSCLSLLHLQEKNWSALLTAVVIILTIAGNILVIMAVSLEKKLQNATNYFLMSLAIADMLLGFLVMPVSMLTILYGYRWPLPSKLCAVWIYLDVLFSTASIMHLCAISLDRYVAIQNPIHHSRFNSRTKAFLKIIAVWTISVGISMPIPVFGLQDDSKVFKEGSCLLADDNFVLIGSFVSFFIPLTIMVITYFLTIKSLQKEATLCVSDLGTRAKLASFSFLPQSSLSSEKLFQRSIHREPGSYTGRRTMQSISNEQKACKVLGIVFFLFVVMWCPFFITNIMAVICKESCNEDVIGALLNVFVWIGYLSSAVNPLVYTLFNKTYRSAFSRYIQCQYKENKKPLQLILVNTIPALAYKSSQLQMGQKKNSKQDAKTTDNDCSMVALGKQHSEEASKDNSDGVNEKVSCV
Sequence of Voltage-gated inwardly rectifying potassium channel KCNH2 (Q12809 whole entry): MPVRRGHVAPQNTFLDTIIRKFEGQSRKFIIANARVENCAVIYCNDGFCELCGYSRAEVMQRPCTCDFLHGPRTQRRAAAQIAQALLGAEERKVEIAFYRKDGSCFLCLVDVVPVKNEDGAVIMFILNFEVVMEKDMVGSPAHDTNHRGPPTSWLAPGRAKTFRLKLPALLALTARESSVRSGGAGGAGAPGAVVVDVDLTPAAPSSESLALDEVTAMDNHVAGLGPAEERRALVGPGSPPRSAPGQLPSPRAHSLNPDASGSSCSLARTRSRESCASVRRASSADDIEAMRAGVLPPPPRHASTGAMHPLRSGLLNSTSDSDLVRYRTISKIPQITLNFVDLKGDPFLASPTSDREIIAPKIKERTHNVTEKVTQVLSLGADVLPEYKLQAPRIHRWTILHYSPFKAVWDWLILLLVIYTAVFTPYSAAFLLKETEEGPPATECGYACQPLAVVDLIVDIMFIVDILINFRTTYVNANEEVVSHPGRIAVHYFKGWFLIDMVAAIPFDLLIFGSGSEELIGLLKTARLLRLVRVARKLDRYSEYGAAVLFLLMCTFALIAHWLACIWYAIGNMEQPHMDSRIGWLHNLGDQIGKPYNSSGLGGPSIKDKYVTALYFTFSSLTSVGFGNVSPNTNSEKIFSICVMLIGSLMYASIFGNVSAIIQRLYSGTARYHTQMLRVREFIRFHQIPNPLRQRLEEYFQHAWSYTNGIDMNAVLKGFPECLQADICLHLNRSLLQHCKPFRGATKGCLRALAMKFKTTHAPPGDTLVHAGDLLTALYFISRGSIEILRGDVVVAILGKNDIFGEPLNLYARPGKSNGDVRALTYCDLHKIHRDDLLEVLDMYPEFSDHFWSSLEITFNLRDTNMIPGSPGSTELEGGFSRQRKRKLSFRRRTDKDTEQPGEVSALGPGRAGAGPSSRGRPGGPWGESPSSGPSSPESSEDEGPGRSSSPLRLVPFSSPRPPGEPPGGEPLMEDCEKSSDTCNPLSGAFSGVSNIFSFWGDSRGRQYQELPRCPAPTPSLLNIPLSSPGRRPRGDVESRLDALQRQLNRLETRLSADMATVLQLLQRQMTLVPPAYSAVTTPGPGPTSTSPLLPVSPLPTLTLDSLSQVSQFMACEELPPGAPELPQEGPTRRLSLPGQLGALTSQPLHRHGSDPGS
Sequence of Cytochrome P450 2D6 (P10635 whole entry): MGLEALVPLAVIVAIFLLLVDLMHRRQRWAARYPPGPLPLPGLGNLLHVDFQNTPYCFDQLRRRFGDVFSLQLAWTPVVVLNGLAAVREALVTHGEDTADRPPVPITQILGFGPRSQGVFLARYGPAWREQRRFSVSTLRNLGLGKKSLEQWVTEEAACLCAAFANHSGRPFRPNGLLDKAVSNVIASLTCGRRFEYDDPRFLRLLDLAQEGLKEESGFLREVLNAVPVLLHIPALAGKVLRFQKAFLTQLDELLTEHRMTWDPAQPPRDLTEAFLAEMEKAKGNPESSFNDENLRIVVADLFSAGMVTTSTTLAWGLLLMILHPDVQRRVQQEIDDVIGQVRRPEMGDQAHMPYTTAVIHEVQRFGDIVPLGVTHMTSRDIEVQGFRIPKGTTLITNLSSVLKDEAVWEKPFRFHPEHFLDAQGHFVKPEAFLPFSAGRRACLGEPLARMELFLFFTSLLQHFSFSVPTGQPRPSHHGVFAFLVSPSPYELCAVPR
Sequence of Cytochrome P450 2C9 (P11712 whole entry): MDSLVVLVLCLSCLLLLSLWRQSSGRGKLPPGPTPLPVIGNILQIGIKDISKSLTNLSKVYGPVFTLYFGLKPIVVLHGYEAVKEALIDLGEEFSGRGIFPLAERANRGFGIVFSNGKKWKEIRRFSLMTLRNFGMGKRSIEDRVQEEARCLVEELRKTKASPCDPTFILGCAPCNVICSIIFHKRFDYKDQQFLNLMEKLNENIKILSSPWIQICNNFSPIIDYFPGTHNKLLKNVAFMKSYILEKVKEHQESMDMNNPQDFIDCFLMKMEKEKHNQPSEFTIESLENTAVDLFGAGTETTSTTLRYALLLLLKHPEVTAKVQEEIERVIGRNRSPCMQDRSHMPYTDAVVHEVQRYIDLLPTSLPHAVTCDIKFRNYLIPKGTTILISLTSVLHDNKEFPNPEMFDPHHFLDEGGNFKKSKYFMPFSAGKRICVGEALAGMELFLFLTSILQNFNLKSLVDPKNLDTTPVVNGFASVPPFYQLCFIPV

Compound `Cc1nc(C(=O)NCCCN2CCN(c3cccc(Cl)c3Cl)CC2)cc(C(C)C)n1.Cl` has an IC50 [1] of 227 nM, an IC50 [2] of 5400 nM and an IC50 [3] of 644 nM. For the same compound, the Activity (Mus musculus [4]) was “Active”, the Activity (Mus musculus [5]) was “Non-toxic” and the Activity (Mus musculus [6]) was “Non-toxic”. It also gave an IC50 [7] of 113 nM.
For `CSc1nc(C)cc(C(=O)NCCN2CCN(c3cccc(C)c3C)CC2)n1.Cl`, the IC50 [1] was 148 nM, the IC50 (Cytochrome P450 2C9) was > 20000 nM and the IC50 (Cytochrome P450 1A2) was > 20000 nM. The IC50 [3] was 1010 nM, the Activity (Mus musculus [4]) was “Active” and the Activity (Mus musculus [5]) was “Non-toxic”. The Activity (Mus musculus [6]) was “Non-toxic”, the IC50 (Cytochrome P450 2D6) was > 20000 nM and the IC50 [7] was 47 nM. For the same compound, the IC50 (Cytochrome P450 3A4) was > 20000 nM.
Compound `Cc1nc(C(=O)NCCCN2CCN(c3cccc(C)c3C)CC2)cc(C(C)(C)C)n1.Cl` has an IC50 [1] of 575 nM, an IC50 [2] of 5900 nM and an IC50 [3] of 730 nM. The Activity (Mus musculus [5]) was “Non-toxic”, the Activity (Mus musculus [6]) was “Non-toxic” and the IC50 [7] was 458 nM.
For `COc1c(C)nc(C)nc1C(=O)NCCN1CCN(c2cccc(Cl)c2Cl)CC1.Cl`, the IC50 [1] was 135 nM, the IC50 [3] was 646 nM and the Activity (Mus musculus [5]) was “Non-toxic”. The Activity (Mus musculus [6]) was “Non-toxic” and the IC50 [7] was 263 nM.
`Cc1nc(C(=O)NCCCN2CCN(c3cccc(Cl)c3Cl)CC2)cc(-c2ccccc2)n1` gave an IC50 [1] of 30 nM, an IC50 [3] of 588 nM and an IC50 [7] of 35 nM.
For `Cc1nc(C(=O)NCCCN2CCN(c3cccc(C)c3C)CC2)cc(C(C)C)n1.Cl`, the IC50 [1] was 1550 nM, the IC50 [3] was 1210 nM and the Activity (Mus musculus [5]) was “Non-toxic”. The Activity (Mus musculus [6]) was “Non-toxic” and the IC50 [7] was 490 nM.
With `Cc1cc(C(=O)NCCN2CCN(c3cccc(C)c3C)CC2)nc(C(C)(C)C)n1.Cl` the IC50 [1] was 494 nM, the IC50 [3] was 6370 nM and the Activity (Mus musculus [5]) was “Non-toxic”. The Activity (Mus musculus [6]) was “Non-toxic” and the IC50 [7] was 69 nM.
With `CSc1nc(C)cc(C(=O)NCCCN2CCN(c3cccc(C)c3C)CC2)n1.Cl` the IC50 [1] was 1170 nM, the IC50 [3] was 394 nM and the Activity (Mus musculus [4]) was “Active”. The Activity (Mus musculus [5]) was “Non-toxic”, the Activity (Mus musculus [6]) was “Non-toxic” and the IC50 [7] was 54 nM.
`Cc1cc(C(=O)NCCCN2CCN(c3cccc(C)c3C)CC2)nc(C2CC2)n1.Cl` was tested, and the IC50 [1] was 1180 nM, the IC50 [3] was 347 nM and the Activity (Mus musculus [5]) was “Non-toxic”. For the same compound, the Activity (Mus musculus [6]) was “Non-toxic” and the IC50 [7] was 256 nM.
For `Cc1cc(C(=O)NCCCN2CCN(c3cccc(C)c3C)CC2)nc(C(C)(C)C)n1.Cl`, the IC50 [1] was 2690 nM, the IC50 [3] was 537 nM and the Activity (Mus musculus [5]) was “Non-toxic”. The Activity (Mus musculus [6]) was “Non-toxic” and the IC50 [7] was 274 nM.
`COc1c(C)nc(C)nc1C(=O)NCCCN1CCN(c2cccc(C)c2C)CC1.Cl` was tested, and the IC50 [1] was 2050 nM, the IC50 [3] was 892 nM and the Activity (Mus musculus [5]) was “Toxic”. It also gave an IC50 [7] of 744 nM.
`CSc1nc(C)cc(C(=O)NCCN2CCN(c3cccc(Cl)c3Cl)CC2)n1.Cl` was tested, and the IC50 [1] was 81 nM, the IC50 [3] was 881 nM and the Activity (Mus musculus [4]) was “Active”. For the same compound, the Activity (Mus musculus [5]) was “Non-toxic”, the Activity (Mus musculus [6]) was “Non-toxic” and the IC50 [7] was 55 nM.
`Cc1cc(C(=O)NCCCN2CCN(c3cccc(Cl)c3Cl)CC2)nc(C)n1.Cl` was tested, and the IC50 [1] was 610 nM, the IC50 [3] was 289 nM and the Activity (Mus musculus [4]) was “Active”. For the same compound, the Activity (Mus musculus [6]) was “Non-toxic” and the IC50 [7] was 166 nM.
In the case of `COc1c(C)nc(C)nc1C(=O)NCCN1CCN(c2cccc(C)c2C)CC1.Cl`, the IC50 [1] is reported as 1270 nM, the IC50 [3] is reported as 2100 nM and the Activity (Mus musculus [5]) is reported as “Non-toxic”. The Activity (Mus musculus [6]) was “Non-toxic” and the IC50 [7] was 842 nM.
